Data: article PMC6445228, “Synthesis and biological evaluation of anti-Toxoplasma gondii activity of a novel scaffold of thiazolidinone derivatives” (Journal of Enzyme Inhibition and Medicinal Chemistry, 2017)
Where two headings read alike, the source gives them in different places.

Key:
[1] = system: T. gondii RH-2 F tachyzoites; assay: Five-day growth inhibition assay (tachyzoite growth, colorimetric); type: cell-based, Toxoplasma gondii; conditions: 120 h, T. gondii RH-2 F in HFF, three experiments; for IC50: read-out: IC50, median inhibitory concentration, a measure of tachyzoite inhibition; for IC90: read-out: IC90, concentration at which 90% of the tachyzoite growth is inhibited
Procedure: (§1) Using published methods[8]^,[19], all of the prepared N-substituted thiazolidinones derivatives were evaluated in vitro for (i) host cell cytotoxicity as well as for the ability to inhibit tachyzoite growth over a period of 5 days (Table 1), for (ii) the ability to inhibit tachyzoite invasion of host cells (Figure 1), and for (iii) the ability to inhibit intracellular tachyzoite replication (Figure 2).
(§2) Compounds were tested for the ability to inhibit in vitro tachyzoite (T. gondii RH-2 F (50839); ATCC, VA) and human foreskin fibroblast (HFF; ATCC) growth for 120 h using a published colorimetric assay[8]^,[19]. Stock solutions of all compounds were 10 mM in DMSO. Serial 0.5 log10 dilutions (320–0.032 μM) of each compound were tested. Data from three separate experiments were analysed and the IC50, IC90, and TD50 calculated using Calcusyn software (Biosoft, Cambridge, UK). The therapeutic index (TI), a measure of specific anti-T. gondii activity, was calculated with the formula shown under Table 1.
We explored the chemical space and the influence on the biological activity of different groups (substituted aromatic and bicyclic rings) at the lactam NH of the core nucleus. […] In the five-day growth inhibition assay, compounds were added only once, just before addition of tachyzoites, and thus were present for multiple cycles, up to 20, of parasite replication.

[2] = system: human foreskin fibroblast (HFF); assay: Five-day growth inhibition assay, host cell cytotoxicity; conditions: 120 h
Procedure: as §1, §2

[3] = HFF cells, top concentration 320 μM

SMILES	IC50 ([1]; Toxoplasma gondii)	IC90 ([1]; Toxoplasma gondii)	TD50, median toxicity dose, a measure of cytotoxicity against host cells ([2]; human)	melting point	IC50 [1]	IC90 [1]	TD50, median toxicity dose, a measure of cytotoxicity against host cells [2, 3]
CCCCC(CC)=NN=C1SCC(=O)N1CN1C(=O)c2ccccc2C1=O [Compound 31, 2-((2-((Heptan-3-ylidene)hydrazono)-4-oxothiazolidin-3-yl)methyl)isoindoline-1,3-dione]	88 µM	402 µM	≥320 µM	–	–	–	–
CC(=NN=C1SCC(=O)N1Cc1ccccc1F)c1cccs1 [Compound 11, 3-(2-Fluorobenzyl)-2-((1-(thiophen-2-yl)ethylidene)hydrazono)thiazolidin-4-one]	25 µM	103 µM	82 µM	80 to 85 °C	–	–	–
CC(=NN=C1SCC(=O)N1CN1C(=O)c2ccccc2C1=O)c1ccc[cH-]1.[Fe+2].c1cc[cH-]c1 [Compound 33, 2-((4-Oxo-2-((1-(ferrocen-2-yl)ethylidene)hydrazono)thiazolidin-3-yl)methyl)isoindoline-1,3-dione]	–	–	–	–	82 µM	286 µM	138 µM
CC(=NN=C1SCC(=O)N1Cc1ccc(Cl)cc1)c1cccs1 [Compound 26, 3-(4-Chlorobenzyl)-2-((1-(thiophen-2-yl)ethylidene)hydrazono)thiazolidin-4-one]	81 µM	211 µM	≥320 µM	146 to 151 °C	–	–	–
O=C1C(O)=C([C@H]2CC[C@H](c3ccc(Cl)cc3)CC2)C(=O)c2ccccc21 [Atovaquone, reference compound]	0.2 µM	2 µM	24 µM	–	–	–	–
CCCCC(CC)=NN=C1SCC(=O)N1Cc1ccccc1Cl [Compound 19, 3-(2-Chlorobenzyl)-2-((heptan-3-ylidene)hydrazono)thiazolidin-4-one]	39 µM	183 µM	95 µM	–	–	–	–
CC(=NN=C1SCC(=O)N1Cc1ccccc1[N+](=O)[O-])c1cccs1 [Compound 2, 3-(2-Nitrobenzyl)-2-((1-(thiophen-2-yl)ethylidene)hydrazono)thiazolidin-4-one]	37 µM	155 µM	280 µM	150 to 151 °C	–	–	–
CCCCC(CC)=NN=C1SCC(=O)N1Cc1cccc(Cl)c1 [Compound 22, 3-(3-Chlorobenzyl)-2-((heptan-3-ylidene)hydrazono)thiazolidin-4-one]	19 µM	106 µM	165 µM	–	–	–	–
CCCCC(CC)=NN=C1SCC(=O)N1Cc1ccccc1[N+](=O)[O-] [Compound 1, 2-((Heptan-3-ylidene)hydrazono)-3-(2-nitrobenzyl)thiazolidin-4-one]	20 µM	111 µM	236 µM	67 to 69 °C	–	–	–
CCCCC(CC)=NN=C1SCC(=O)N1Cc1cccc([N+](=O)[O-])c1 [Compound 4, 2-((Heptan-3-ylidene)hydrazono)-3–(3-nitrobenzyl)thiazolidin-4-one]	44 µM	138 µM	68 µM	–	–	–	–
CCCCC(CC)=NN=C1SCC(=O)N1Cc1cccc(F)c1 [Compound 13, 3-(3-Fluorobenzyl)-2-((heptan-3-ylidene)hydrazono)thiazolidin-4-one]	18 µM	99 µM	246 µM	30 to 31 °C	–	–	–
CCCCC(CC)=NN=C1SCC(=O)N1Cc1ccc(F)cc1 [Compound 16, 3–(4-Fluorobenzyl)-2-((heptan-3-ylidene)hydrazono)thiazolidin-4-one]	29 µM	107 µM	192 µM	–	–	–	–
CC(=NN=C1SCC(=O)N1Cc1cccc([N+](=O)[O-])c1)c1cccs1 [Compound 5, 3-(3-Nitrobenzyl)-2-((1-(thiophen-2-yl)ethylidene)hydrazono)thiazolidin-4-one]	52 µM	171 µM	≥320 µM	165 to 170 °C	–	–	–
CC(=NN=C1SCC(=O)N1Cc1ccc(F)cc1)c1cccs1 [Compound 17, 3-(4-Fluorobenzyl)-2-((1-(thiophen-2-yl)ethylidene)hydrazono)thiazolidin-4-one]	72 µM	312 µM	≥320 µM	118 to 123 °C	–	–	–
CCCCC(CC)=NN=C1SCC(=O)N1Cc1cccc2ccccc12 [Compound 28, 2-((Heptan-3-ylidene)hydrazono)-3-(naphthalen-1-ylmethyl)thiazolidin-4-one]	37 µM	138 µM	271 µM	–	–	–	–
CC(=NN=C1SCC(=O)N1Cc1cccc(Cl)c1)c1ccc[cH-]1.[Fe+2].c1cc[cH-]c1 [Compound 24, 3-(3-Chlorobenzyl)-2-((1-(ferrocen-2-yl)ethylidene)hydrazono)thiazolidin-4-one]	–	–	–	–	8 µM	17 µM	≥320 µM
CC(=NN=C1SCC(=O)N1Cc1cccc([N+](=O)[O-])c1)c1ccc[cH-]1.[Fe+2].c1cc[cH-]c1 [Compound 6, 3-(3-Nitrobenzyl)-2-((1-(ferrocen-2-yl)ethylidene)hydrazono)thiazolidin-4-one]	–	–	–	–	24 µM	152 µM	≥320 µM
CC(=NN=C1SCC(=O)N1Cc1cccc(F)c1)c1cccs1 [Compound 14, 3-(3-Fluorobenzyl)-2-((1-(thiophen-2-yl)ethylidene)hydrazono)thiazolidin-4-one]	45 µM	147 µM	178 µM	84 to 85 °C	–	–	–
CCCCC(CC)=NN=C1SCC(=O)N1Cc1ccc(Cl)cc1 [Compound 25, 3-(4-Chlorobenzyl)-2-((heptan-3-ylidene)hydrazono)thiazolidin-4-one]	51 µM	131 µM	244 µM	–	–	–	–
CC(=NN=C1SCC(=O)N1Cc1ccccc1Cl)c1cccs1 [Compound 20, 3-(2-Chlorobenzyl)-2-((1-(thiophen-2-yl)ethylidene)hydrazono)thiazolidin-4-one]	34 µM	112 µM	84 µM	100 to 102 °C	–	–	–
CCCCC(CC)=NN=C1SCC(=O)N1Cc1ccc([N+](=O)[O-])cc1 [Compound 7, 2-((Heptan-3-ylidene)hydrazono)-3-(4-nitrobenzyl)thiazolidin-4-one]	32 µM	128 µM	98 µM	–	–	–	–
CCCCC(CC)=NN=C1SCC(=O)N1Cc1ccccc1F [Compound 10, 3-(2-Fluorobenzyl)-2-((heptan-3-ylidene)hydrazono)thiazolidin-4-one]	24 µM	104 µM	90 µM	–	–	–	–
CC(=NN=C1SCC(=O)N1Cc1ccccc1Cl)c1ccc[cH-]1.[Fe+2].c1cc[cH-]c1 [Compound 21, 3-(2-Chlorobenzyl)-2-((1-(ferrocen-2-yl)ethylidene)hydrazono)thiazolidin-4-one]	–	–	–	–	9 µM	24 µM	≥320 µM
